Source: patent publication US20050131045A1, “Novel crystal forms of ondansetron, processes for their preparation, pharmaceutical, compositions containing the novel forms and methods for treating nausea using them” (priority 2002, published 2005)

Experiment: Solubility in C1-C3 alcohols
Assay type: physicochemical
Conditions: methanol, ethanol, propan-1-ol, propan-2-ol; room temperature
Method: Ondansetron Form B may be prepared by crystallizing ondansetron from a solution in a C1-C3 alcohol, in particular, methanol, ethanol, propan-1-ol, propan-2-ol and mixtures thereof. Ondansetron is dissolved in the C1-C3 alcohol, preferably in an amount sufficient to produce from about a 50 mM to about a 300 mM solution, more preferably from about an 85 mM to about a 150 mM solution. […] Consequently, it may be necessary to heat the mixture in order to fully dissolve it. Preferably, the mixture is refluxed until the mixture becomes a clear solution. The solution is preferably free of solid ondansetron that could potentially seed the mixture causing precipitation of ondansetron in a crystalline form other than Form B or co-crystallization of Form B with another form. Preferably, the Form B obtained by crystallization from the alcohol solution contains less than or equal to about 5% other crystalline forms of ondansetron, more preferably Form B contains less than or equal to about 1% other crystalline forms of ondansetron.

Q: Which “solubility in C1-C3 alcohols” value does the source give for `Cc1nccn1CC1CCc2c(c3ccccc3n2C)C1=O` (racemic) [Ondansetron, (±) 1,2,3,9-Tetrahydro-9-methyl-3-[2-methyl-1H-imidazol-1-yl)methyl]-4H-carbazol-4-one] here?
A: The value was “limited solubility”.
